Measured values from patent US10287271B2, “Indole compounds having antiprotozoal activity and its use as well as methods for producing the same” (TECHNISCHE UNIVERSITAET BRAUNSCHWEIG, priority 2015, dated 2019).

System: NF54-luc P. falciparum
Assay: luciferase-based viability assay, erythrocytic stages of transgenic NF54-luc P. falciparum
Format: cell-based, Plasmodium falciparum
Details: for inhibition at 3 µM / inhibition at 30 µM / EC50: Plasmodium falciparum; for inhibition at 3 µM / inhibition at 30 µM: NF54, 48 hours; for inhibition at 3 µM: 3 μM test compound; for inhibition at 30 µM: 30 μM test compound; for EC50: erythrocytic stages NF54-luc, 48 hours incubation, titration
Protocol: Erythrocytic stages of transgenic NF54-luc P. falciparum were used for the luciferase-based viability assay. First, the culture was dispensed in triplicate into white 96-well flat bottom plates (each well contains 250 ul) (NUNC, Denmark) with parasitemia of 0.5-1%. Then the cultures were incubated in the presence of a 30 μM concentration of the test compounds for 48 hours (37° C., 90% N2, 5% CO2, and 5% O2). Subsequently, 100 ul RPMI1640 media was removed from each well and a 100 μL volume of the Bright-Glo® substrate solution was added to each well. One of the cleavage products of the reaction is light, which was measured by a FLUOROSKAN FL luminometer (Thermo) machine; thereby detecting the amount of living parasites. In case the inhibition of the proliferation exceeded 50%, the experiments were repeated with 3 μM solutions. […] The EC50 value is the half maximal effective concentration (the concentration at which half maximal inhibition is observed). Untreated cultures were used as negative controls and to calculate the inhibition rate (0% inhibition of parasite growth). Blasticidin (Sigma-Aldrich, St. Louis, Mo.), a drug used for selection of transfected parasites, was included as a positive control on each plate and gave >90% inhibition of parasite growth at 2 μg/mL.

`CN(CC[C@H](N)CC(=O)N[C@H]1C=C[C@H](n2ccc(N)nc2=O)O[C@@H]1C(=O)O)C(=N)N` [Blasticidin, reference compound] was tested, and the “inhibition of parasite growth” value (positive control at 2 μg/mL) was over 90%.

`O=c1c(-c2c(-c3ccccc3)[nH]c3ccccc23)c(-c2c(-c3ccccc3)[nH]c3ccccc23)c1=O` [KuHL009, 3,4-Bis(2-phenyl-1H-indol-3-yl)cyclobut-3-ene-1,2-dione] showed an inhibition at 3 µM of 41.1 ± 0.6%, an inhibition at 30 µM of 98.9 ± 0.8% and an EC50 of 2.47 µM.

In the case of `Cc1[nH]c2ccccc2c1-c1c(-c2c(C)[nH]c3ccccc23)c(=O)c1=O` [KuHL012, 3,4-Bis(2-methyl-1H-indol-3-yl)cyclobut-3-ene-1,2-dione], the inhibition at 3 µM is reported as 18.3 ± 6.3% and the inhibition at 30 µM is reported as 77.8 ± 5.9%.

With `COc1ccc2[nH]cc(-c3c(-c4c(C)[nH]c5ccccc45)c(=O)c3=O)c2c1` [KuHL018, 3-(5-Methoxy-1H-indol-3-yl)-4-(2-methyl-1H-indol-3-yl)cyclobut-3-en-1,2-dione] the inhibition at 3 µM was 34.2 ± 8%, the inhibition at 30 µM was 99.6 ± 0.2% and the EC50 was 10 µM.

Work on `Cc1[nH]c2ccccc2c1-c1c(-c2c[nH]c3ccccc23)c(=O)c1=O` [KuHL025, 3-(1H-Indol-3-yl)-4-(2-methyl-1H-indol-3-yl)cyclobut-3-ene-1,2-dione] yielded an inhibition at 3 µM of 23.4 ± 5.4%, an inhibition at 30 µM of 98.8 ± 0.5% and an EC50 of over 30 µM.

Work on `Cc1[nH]c2ccccc2c1-c1c(-c2c(-c3ccccc3)[nH]c3ccccc23)c(=O)c1=O` [KuHL026, 3-(2-Methyl-1H-indol-3-yl)-4-(2-phenyl-1H-indol-3-yl)cyclobut-3-ene-1,2-dione] yielded an inhibition at 3 µM of 41.1 ± 1.7%, an inhibition at 30 µM of 98.4 ± 0.5% and an EC50 of 9.26 µM.

For `Cc1[nH]c2ccccc2c1-c1c(-c2c[nH]c3ccc(Br)cc23)c(=O)c1=O` [KuHL027, 3-(5-Bromo-1H-indol-3-yl)-4-(2-methyl-1H-indol-3-yl)cyclobut-3-ene-1,2-dione], the inhibition at 3 µM was 45.6 ± 1.8%, the inhibition at 30 µM was 99.3 ± 0.4% and the EC50 was 30.5 µM.

In the case of `Cn1cc(-c2c(-c3c[nH]c4ccccc34)c(=O)c2=O)c2ccccc21` [KuHL032, 3-(1H-Indol-3-yl)-4-(1-methyl-1H-indol-3-yl)cyclobut-3-ene-1,2-dione], the inhibition at 3 µM is reported as 52 ± 1.8%, the inhibition at 30 µM is reported as 98.7 ± 1.1% and the EC50 is reported as 2.97 µM.

For `O=c1c(-c2c[nH]c3ccccc23)c(-c2c[nH]c3ccc(Br)cc23)c1=O` [KuHL037, 3-(5-Bromo-1H-indol-3-yl)-4-(1H-indol-3-yl)cyclobut-3-ene-1,2-dione], the inhibition at 3 µM was 65.9 ± 1.8%, the inhibition at 30 µM was 99.5 ± 0.4% and the EC50 was 3.02 µM.

Work on `O=c1c(-c2c[nH]c3ccccc23)c(-c2c[nH]c3ccccc23)c1=O` [KuHL043, 3,4-Bis(1H-indol-3-yl)cyclobut-3-ene-1,2-dione] yielded an inhibition at 3 µM of 17.9 ± 3.3%, an inhibition at 30 µM of 99.2 ± 0.2% and an EC50 of 8.33 µM.

Work on `O=c1c(-c2c[nH]c3ccccc23)c(-c2c(-c3ccccc3)[nH]c3ccccc23)c1=O` [KuHL044, 3-(1H-Indol-3-yl)-4-(2-phenyl-1H-indol-3-yl)cyclobut-3-ene-1,2-dione] yielded an inhibition at 3 µM of 65 ± 2.8%, an inhibition at 30 µM of 99.7 ± 0.1% and an EC50 of 6.38 µM.

Compound `COc1ccc2[nH]cc(-c3c(-c4c[nH]c5ccc(Br)cc45)c(=O)c3=O)c2c1` [KuHL047, 3-(5-Bromo-1H-indol-3-yl)-4-(5-methoxy-1H-indol-3-yl)cyclobut-3-ene-1,2-dione] has an inhibition at 3 µM of 100%, an inhibition at 30 µM of 98.8 ± 0.7% and an EC50 of 0.47 µM.

Compound `COc1ccc2[nH]cc(-c3c(-c4c[nH]c5ccc(OC)cc45)c(=O)c3=O)c2c1` [KuHL048, 3,4-Bis(5-methoxy-1H-indol-3-yl)cyclobut-3-ene-1,2-dione] has an inhibition at 3 µM of 19.7 ± 3.6% and an inhibition at 30 µM of 79.3 ± 1.3%.

In the case of `COc1ccc2[nH]cc(-c3c(-c4c[nH]c5ccccc45)c(=O)c3=O)c2c1` [KuHL049, 3-(1H-Indol-3-yl)-4-(5-methoxy-1H-indol-3-yl)cyclobut-3-ene-1,2-dione], the inhibition at 3 µM is reported as 18.3 ± 5%.

`Cc1[nH]c2ccccc2c1-c1c(-c2cn(C)c3ccccc23)c(=O)c1=O` [KuHL050, 3-(1-Methyl-1H-indol-3-yl)-4-(2-methyl-1H-indol-3-yl)cyclobut-3-ene-1,2-dione] gave an inhibition at 3 µM of 59.6 ± 0.2%, an inhibition at 30 µM of 99.3 ± 0.3% and an EC50 of 2.67 µM.

In the case of `COc1ccc2[nH]cc(-c3c(-c4cn(C)c5ccccc45)c(=O)c3=O)c2c1` [KuHL057, 3-(5-Methoxy-1H-indol-3-yl)-4-(1-methyl-1H-indol-3-yl)cyclobut-3-ene-1,2-dione], the inhibition at 30 µM is reported as 13.6 ± 3.9%.

`COc1ccc2[nH]cc(-c3c(-c4c(-c5ccccc5)[nH]c5ccccc45)c(=O)c3=O)c2c1` [KuHL058, 3-(5-Methoxy-1H-indol-3-yl)-4-(2-phenyl-1H-indol-3-yl)cyclobut-3-ene-1,2-dione] showed an inhibition at 3 µM of 22.4 ± 2.7%.

`O=c1c(-c2c[nH]c3ccc(Br)cc23)c(-c2c(-c3ccccc3)[nH]c3ccccc23)c1=O` [KuHL071, 3-(5-Bromo-1H-indol-3-yl)-4-(2-phenyl-1H-indol-3-yl)cyclobut-3-ene-1,2-dione] was tested, and the inhibition at 3 µM was 16 ± 0.7%.

In the case of `Cn1cc(-c2c(-c3c(-c4ccccc4)[nH]c4ccccc34)c(=O)c2=O)c2ccccc21` [KuHL072, 3-(1-Methyl-1H-indol-3-yl)-4-(2-phenyl-1H-indol-3-yl)cyclobut-3-ene-1,2-dione], the inhibition at 3 µM is reported as 67.7 ± 0.7% and the EC50 is reported as 1.72 µM.

`Cc1[nH]c2ccccc2c1-c1c(-c2cn(C)c3ccc(Br)cc23)c(=O)c1=O` [KuHL077, 3-(5-Bromo-1-methyl-1H-indol-3-yl)-4-(2-methyl-1H-indol-3-yl)cyclobut-3-ene-1,2-dione] gave an inhibition at 3 µM of 12.7 ± 2.8%.

Work on `COc1ccc2[nH]cc(-c3c(-c4c[nH]c5ccc(I)cc45)c(=O)c3=O)c2c1` [KuHL101, 3-(5-Iodo-1H-indol-3-yl)-4-(5-methoxy-1H-indol-3-yl)cyclobut-3-ene-1,2-dione] yielded an inhibition at 3 µM of 99.1 ± 0.4% and an EC50 of 0.65 µM.

For `COc1ccc2[nH]cc(-c3c(-c4c[nH]c5ccc(Cl)cc45)c(=O)c3=O)c2c1` [KuHL102, 3-(5-Chloro-1H-indol-3-yl)-4-(5-methoxy-1H-indol-3-yl)cyclobut-3-ene-1,2-dione], the inhibition at 3 µM was 87 ± 0.5% and the EC50 was 1.52 µM.

With `COc1ccc2[nH]cc(-c3c(-c4c[nH]c5ccc(C#N)cc45)c(=O)c3=O)c2c1` [KuHL103, 3-[2-(5-Methoxy-1H-indol-3-yl)-3,4-dioxocyclobut-1-ene-1-yl]-1H-indol-5-carbonitrile] the inhibition at 3 µM was 26.8 ± 1.1%.

`COc1ccc2[nH]cc(-c3c(-c4c[nH]c5ccc(F)cc45)c(=O)c3=O)c2c1` [KuHL113, 3-(5-Fluoro-1H-indol-3-yl)-4-(5-methoxy-1H-indol-3-yl)cyclobut-3-ene-1,2-dione] gave an inhibition at 3 µM of 19.3 ± 3.1%.

Work on `O=c1c(-c2c[nH]c3ccccc23)c(-c2c[nH]c3ccc(I)cc23)c1=O` [KuHL117, 3-(1H-indol-3-yl)-4-(5-iodo-1H-indol-3-yl)cyclobut-3-ene-1,2-dione] yielded an inhibition at 3 µM of 31.3 ± 2.7%.

With `O=c1c(-c2c[nH]c3ccccc23)c(-c2c[nH]c3ccc(Cl)cc23)c1=O` [KuHL118, 3-(5-Chloro-1H-indol-3-yl)-4-(1H-indol-3-yl)cyclobut-3-ene-1,2-dione] the inhibition at 3 µM was 44.7 ± 0.5%.

Work on `N#Cc1ccc2[nH]cc(-c3c(-c4c[nH]c5ccccc45)c(=O)c3=O)c2c1` [KuHL122, 3-[2-(1H-Indol-3-yl)-3,4-dioxocyclobut-1-ene-1-yl]-1H-indol-5-carbonitrile] yielded an inhibition at 3 µM of 26.8 ± 1.6%.

Compound `COc1ccc2[nH]cc(-c3c(-c4c[nH]c5ccc(OCc6ccccc6)cc45)c(=O)c3=O)c2c1` [KuHL136, 3-[5-(Benzyloxy)-1H-indol-3-yl]-4-(5-methoxy-1H-indol-3-yl)cyclobut-3-ene-1,2-dione] has an inhibition at 3 µM of 21.7 ± 2.5%.
